Laboratory results as given in US12048703B2, “Use of small molecule FAK activators to promote mucosal healing” (Regents of the University of Minnesota, priority 2018, dated 2024).
“Also recorded” adds a separate entry of the source.

Columns and labels:
FAK = biological target: T1, FAK (Homo sapiens, UniProt Q05397); assay: FAK activation (FAK-Tyr-397 phosphorylation) by western blotting in Caco-2 cells in suspension; format: cell-based; settings: for basal FAK-Tyr-397 phosphorylation: ambient pressure, varying concentrations; for FAK activation (FAK-Tyr-397 phosphorylation): Caco-2 cells; for FAK phosphorylation: 100 pm-1 nM
T1 construct: endogenous in cells; host or cells: Caco-2
Source text: FAK-Y397 western blotting: For studies of FAK activation, cells were maintained at ambient or increased pressure in bacteriologic plastic dishes pacificated with heat-inactivated bovine serum albumin to prevent adhesion and avoid adhesion-associated background FAK activation. Cells were lysed in lysis buffer, resolved by 10% SDS-PAGE, transferred to nitrocellulose and blotted with antibody to Tyr-397-phosphorylated FAK (Rabbit monoclonal antibody, ab81298, Abcam, USA) and anti-rabbit 680 (LI-COR, USA), before quantitation using Kodak Scientific Imaging Systems 1D, V.3.5.4 within the linear range of exposure (Oncotarget 2017). Total FAK (Primary antibody: Anti-FAK, clone 4.47 Merck, Germany and secondary antibody: anti-mouse 800, LI-COR, USA) served as a protein loading control.

Caco-2 monolayers = assay: Closure of circular wounds in Caco-2 monolayers on collagen I; format: cell-based, human; settings: for wound closure rate: 100 μM, Caco-2 on Collagen-I; for monolayer wound closure: Caco-2 on collagen I; for stimulation of wound closure under FAK blockade: with FAK inhibitor PF-573328 (10 uM); for Caco-2 monolayer wound closure: concentration not given
[1] = Body weight in indomethacin ulcer mice; format: in vivo; settings: indomethacin model, trend not statistically significant
Method: (§1) (B) Indomethacin ulcer healing. 15 mg/kg of indomethacin was administered subcutaneously, and treatment started with vehicle of drug 1 day after injury. At 4 days, ulcer area was calculated after sacrifice by morphometric analysis of photographs of the entire small bowel.

PTP1B-FAK interaction = biological target: T2, PTP1B-FAK interaction (Homo sapiens, UniProt Q05397); assay: PTP1B-FAK interaction by FAK immunoprecipitation and Western for PTP1B; format: cell-based; settings: 10 nM; co-precipitation; listed as D3
T2 construct: endogenous in cells; host or cells: Caco-2 (inferred)

ileal ulcer = assay: Serosal acetic acid ileal ulcer healing in mice; format: in vivo; settings: vs DMSO vehicle, listed as D3
Method: An in vivo study was conducted utilizing C57BL6 Male/Female>8-week-old mice. During laparotomy under anesthesia, a filter paper soaked with 75% Acetic Acid was applied to ileal serosa for 15 seconds, a technique that produces reproducible mucosal ulcers at day 4 without opening the bowel. Flanigan T L et al., Am J Surg. 2008 November; 196(5): 683-689. doi:10.1016/j.amjsurg.2008.07.016.
At 1 day after ulcerogenesis, an intraperitoneal (IP) administration of Q6H-DMSO (2.4 ul+97.6 ul saline) was performed in a control sample, along with an IP injection of Q6H—Compound 3 (10 ug/ul) (2.4 ul+97.6 ul saline) in a test sample.
At 4 days after ulcerogenesis (day 3 after starting administration), the ulcer area was measured in each. The observed ulcer area and corresponding wound closure rate in vivo further evidences the effect of Compound 3.
(§2) (A) The effects of dosing of compound D3 on murine intestinal ulcer healing was investigated. Brief serosal application of a filter paper disk soaked in dilute acetic acid was used to create well demarcated reproducible mucosal small bowel ulcerations without opening the bowel (47-49). In one study such murine ulcers were created, allowed 24 hours for recovery and ulcer formation, and then compound D3 was administered at 900 ug/kg Q6H for three days before sacrifice. […] Males and females responded similarly.

[2] = Toxicity assessment in acetic acid ulcer mice (weight, serum chemistry, histology); format: in vivo; settings: acetic acid ulcer model
Method: as §2

Pyk2 (also called FAK2) = biological target: T3, Pyk2 (also called FAK2) (Homo sapiens, UniProt Q14289); assay: Pyk2 activation (selectivity); format: cell-based; settings: up to 1000 nm (100× therapeutic threshold); listed as D3
T3 construct: endogenous in cells

Caco-2 cells = assay: Caco-2 proliferation; format: cell-based, human
small bowel ulcer = assay: Indomethacin small bowel ulcer healing in mice; format: in vivo; settings: 4 days after indomethacin 15 mg/kg subQ, listed as D3
Method: as §1

SHP2 = biological target: T4, SHP2 (Homo sapiens, UniProt Q06124); assay: SHP2 dephosphorylation of a synthetic substrate; format: biochemical; settings: for SHP2 dephosphorylation of a synthetic substrate: 100 nM, vs. positive control reaction
T4 sequence (Q06124 1-593): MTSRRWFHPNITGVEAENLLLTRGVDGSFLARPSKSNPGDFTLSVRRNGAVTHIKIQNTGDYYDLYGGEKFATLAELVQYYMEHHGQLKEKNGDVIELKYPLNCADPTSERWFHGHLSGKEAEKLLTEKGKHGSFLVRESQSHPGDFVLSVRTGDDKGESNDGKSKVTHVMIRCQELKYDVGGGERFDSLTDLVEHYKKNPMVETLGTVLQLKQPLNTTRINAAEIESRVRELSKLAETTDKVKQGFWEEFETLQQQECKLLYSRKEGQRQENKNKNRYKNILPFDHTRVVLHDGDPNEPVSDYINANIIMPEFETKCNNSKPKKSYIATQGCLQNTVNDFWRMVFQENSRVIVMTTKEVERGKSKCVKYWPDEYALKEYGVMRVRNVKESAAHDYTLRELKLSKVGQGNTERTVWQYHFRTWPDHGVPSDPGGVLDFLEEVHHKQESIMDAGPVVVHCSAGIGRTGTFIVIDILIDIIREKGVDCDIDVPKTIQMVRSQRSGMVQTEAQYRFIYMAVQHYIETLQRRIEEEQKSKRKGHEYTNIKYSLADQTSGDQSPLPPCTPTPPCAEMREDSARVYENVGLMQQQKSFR

Src = biological target: T5, Src (Homo sapiens, UniProt P12931); assay: Src activation (selectivity); format: cell-based; settings: up to 1000 nm (100× therapeutic threshold); listed as D3
T5 construct: endogenous in cells
T5 sequence (P12931 whole entry): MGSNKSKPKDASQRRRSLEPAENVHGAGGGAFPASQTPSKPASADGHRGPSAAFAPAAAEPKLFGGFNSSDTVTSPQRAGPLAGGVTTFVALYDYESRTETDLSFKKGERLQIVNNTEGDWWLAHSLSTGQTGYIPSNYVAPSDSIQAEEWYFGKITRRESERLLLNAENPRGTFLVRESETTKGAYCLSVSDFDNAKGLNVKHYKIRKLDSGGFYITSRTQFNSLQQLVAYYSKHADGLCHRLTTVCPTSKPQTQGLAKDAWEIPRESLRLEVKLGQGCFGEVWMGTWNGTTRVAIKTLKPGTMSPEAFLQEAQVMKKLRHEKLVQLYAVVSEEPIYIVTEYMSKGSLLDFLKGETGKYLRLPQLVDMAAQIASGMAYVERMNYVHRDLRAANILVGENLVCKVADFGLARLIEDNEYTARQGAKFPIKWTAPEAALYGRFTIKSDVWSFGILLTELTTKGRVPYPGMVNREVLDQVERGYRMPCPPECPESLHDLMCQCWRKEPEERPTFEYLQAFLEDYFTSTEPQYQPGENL

T1 sequence (Q05397 whole entry): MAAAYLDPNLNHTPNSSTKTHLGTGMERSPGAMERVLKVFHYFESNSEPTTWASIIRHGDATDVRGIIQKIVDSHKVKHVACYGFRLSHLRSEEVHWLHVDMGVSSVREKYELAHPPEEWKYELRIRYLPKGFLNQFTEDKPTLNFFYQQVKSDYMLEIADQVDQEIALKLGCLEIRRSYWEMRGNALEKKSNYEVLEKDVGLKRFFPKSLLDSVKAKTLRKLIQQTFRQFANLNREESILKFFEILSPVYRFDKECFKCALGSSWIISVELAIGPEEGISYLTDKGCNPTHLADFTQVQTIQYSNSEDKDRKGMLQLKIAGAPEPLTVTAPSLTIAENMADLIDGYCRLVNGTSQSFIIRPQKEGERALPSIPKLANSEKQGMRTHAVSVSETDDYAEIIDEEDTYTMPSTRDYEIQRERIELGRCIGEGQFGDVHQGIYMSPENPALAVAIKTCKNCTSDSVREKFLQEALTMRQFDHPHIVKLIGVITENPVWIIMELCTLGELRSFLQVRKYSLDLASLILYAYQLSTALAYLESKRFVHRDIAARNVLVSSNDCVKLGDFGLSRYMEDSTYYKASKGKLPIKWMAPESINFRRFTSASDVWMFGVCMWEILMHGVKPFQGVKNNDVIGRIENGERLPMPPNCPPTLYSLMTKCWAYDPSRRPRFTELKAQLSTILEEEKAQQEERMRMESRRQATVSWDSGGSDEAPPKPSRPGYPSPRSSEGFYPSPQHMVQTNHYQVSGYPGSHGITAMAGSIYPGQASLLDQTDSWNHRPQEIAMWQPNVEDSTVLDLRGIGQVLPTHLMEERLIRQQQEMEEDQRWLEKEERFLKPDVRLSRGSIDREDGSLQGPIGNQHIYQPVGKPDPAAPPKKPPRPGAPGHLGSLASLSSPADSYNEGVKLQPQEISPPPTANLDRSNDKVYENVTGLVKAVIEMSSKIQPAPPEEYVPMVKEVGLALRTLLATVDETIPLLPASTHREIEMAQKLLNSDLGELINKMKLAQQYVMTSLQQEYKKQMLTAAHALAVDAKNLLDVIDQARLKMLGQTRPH
T3 sequence (Q14289 whole entry): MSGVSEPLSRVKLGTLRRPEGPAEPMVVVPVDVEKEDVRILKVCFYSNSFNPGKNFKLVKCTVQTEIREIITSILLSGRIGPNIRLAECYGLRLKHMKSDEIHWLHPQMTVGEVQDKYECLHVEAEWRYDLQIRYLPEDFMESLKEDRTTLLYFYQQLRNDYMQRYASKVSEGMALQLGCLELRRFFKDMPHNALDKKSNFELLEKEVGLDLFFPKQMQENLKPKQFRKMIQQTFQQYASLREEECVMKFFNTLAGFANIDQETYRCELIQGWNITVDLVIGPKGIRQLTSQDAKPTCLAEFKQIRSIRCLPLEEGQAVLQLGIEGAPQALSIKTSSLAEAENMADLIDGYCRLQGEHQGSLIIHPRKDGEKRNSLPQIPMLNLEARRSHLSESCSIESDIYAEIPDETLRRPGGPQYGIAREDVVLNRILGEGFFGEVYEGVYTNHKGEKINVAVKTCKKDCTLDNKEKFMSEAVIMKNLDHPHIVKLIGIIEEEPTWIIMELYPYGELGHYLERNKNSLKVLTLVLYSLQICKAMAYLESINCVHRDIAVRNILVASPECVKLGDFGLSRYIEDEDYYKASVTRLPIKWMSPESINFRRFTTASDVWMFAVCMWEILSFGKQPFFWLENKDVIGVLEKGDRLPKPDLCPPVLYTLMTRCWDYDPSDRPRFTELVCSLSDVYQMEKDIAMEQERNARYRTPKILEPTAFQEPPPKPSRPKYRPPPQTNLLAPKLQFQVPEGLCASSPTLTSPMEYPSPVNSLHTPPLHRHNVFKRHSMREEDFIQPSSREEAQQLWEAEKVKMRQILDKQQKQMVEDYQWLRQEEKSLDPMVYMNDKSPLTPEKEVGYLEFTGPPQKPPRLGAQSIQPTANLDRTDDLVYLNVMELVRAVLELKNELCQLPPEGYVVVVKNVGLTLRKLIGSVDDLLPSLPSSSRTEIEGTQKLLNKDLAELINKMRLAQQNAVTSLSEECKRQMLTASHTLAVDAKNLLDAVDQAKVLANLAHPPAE
T2 sequence (Q05397 whole entry): as the sequence (Q05397 whole entry) above

SMILES: Cc1ccccc1[C@@H]1CCCN1C(=O)C[C@H](NC(N)=O)c1cccs1 [Compound 2, [(1S)-3-[(2S)-2-(2-methylphenyl)pyrrolidin-1-yl]-3-oxo-1-thiophen-2-ylpropyl]urea]
- FAK activation (FAK; 1 nM): demonstrated FAK activation
- FAK activation (FAK; 10 and 100 nM): modest FAK activation
- basal FAK-Tyr-397 phosphorylation (FAK): increase basal FAK-Tyr-397 phosphorylation
- FAK activation (FAK; concentration not given): activated FAK
- wound closure rate (Caco-2 monolayers): Increased wound closure rates

SMILES: COc1ccc(C2CCCN2C(=O)Nc2cc(C(F)(F)F)ccc2N2CCOCC2)cc1 (stereo not drawn) [Compound 3, 2-(4-methoxyphenyl)-N-[2-(morpholin-4-yl)-5-(trifluoromethyl)phenyl]pyrrolidine-1-carboxamide]
- FAK activation (FAK; 10 pM to 1 nM): activation
- FAK activation (FAK; 1 nM): demonstrated FAK activation
- FAK activation (FAK-Tyr-397 phosphorylation) (FAK; 10 nM, listed as D3): activating FAK; also recorded: activate FAK
- FAK-Y-397 phosphorylation under PTP PEST inhibition (FAK; 10 nM, PTP LYP inhibitor 540217 (50 uM), listed as D3): does not prevent D3 induction of FAK-Y-397; also recorded: stimulates Caco-2 FAK-Y-397 phosphorylation independently of PTP PEST inhibition
- FAK activation in presence of genistein (FAK; 100 ug/ml genistein, human Caco-2 cells, listed as D3): does not block D3 induction of FAK phosphorylation; also recorded: does not block D3 activation of FAK
- FAK activation, dose dependence (FAK; 10-1000 nM): dose dependently activates FAK
- specificity vs. Pyk2 (FAK; FAK activation at 10 nM vs. Pyk2): at least 100 ×
- basal FAK-Tyr-397 phosphorylation (FAK): increase basal FAK-Tyr-397 phosphorylation
- FAK activation (FAK; concentration not given): especially potent
- FAK autophosphorylation in presence of FAK inhibitor PF573228 (FAK; with PF573228): does not prevent Compound 3 from increasing FAK autophosphorylation
- body weight [1]: lost less weight
- PTP1B-FAK interaction (PTP1B-FAK interaction): does not change FAK-PTPB association; also recorded: does not inhibit PTP1B-FAK interaction
- % wound closure between day 1 and day 4 (ileal ulcer; 900 ug/kg IP every 6 hours): markedly higher; also recorded: stimulates ulcer healing
- ileal ulcer area (ileal ulcer; day 4, 900 ug/kg IP every 6 hours for 3 days): substantially smaller ulcers; also recorded: reduces ileal ulcer area; also recorded: ulcers appear smaller
- ALT ([2]; remained within the normal range): slight elevation of ALT
- Histological evaluation of kidneys or livers ([2]; vs vehicle): no differences
- Serum creatinine ([2]; vs vehicle): not different
- postoperative body weight ([2]; vs vehicle): did not display further weight loss
- Pyk2 activation (Pyk2 (also called FAK2)): does not activate Pyk2 or Src; also recorded: does not affect the kinase Pyk2
- Caco-2 cell proliferation (Caco-2 cells): Neither Compound 1 nor Compound 3 stimulated Caco-2 cell proliferation
- Caco-2 proliferation (cell number) (Caco-2 cells; 48 hours, listed as D3): cell number did not increase; also recorded: does not stimulate Caco-2 proliferation
- wound closure when proliferation is blocked (Caco-2 monolayers; 10 nM, 4 mM OH-urea, listed as D3): stimulates wound closure even when proliferation is blocked; also recorded: accelerates closure of circular wounds
- monolayer wound closure (Caco-2 monolayers; 10 nM): Increased wound closure rates
- monolayer wound closure (Caco-2 monolayers; 10 nM, listed as D3): accelerate the closure of circular wounds
- wound closure rate (Caco-2 monolayers): Increased wound closure rates
- stimulation of wound closure under FAK blockade (Caco-2 monolayers): prevents the stimulation of wound healing by Compound 3
- stimulation of wound closure under FAK blockade (Caco-2 monolayers; listed as D3): prevented D3 stimulation of monolayer wound closure; also recorded: prevents D3 stimulation of wound closure
- total small bowel ulcer area (small bowel ulcer): substantial and statistically significant reduction in ulcer area; also recorded: markedly decreases total small bowel ulcer area
- SHP2 dephosphorylation of a synthetic substrate (SHP2): neither D3 nor D4 (100 nM) blocks SHP2 dephosphorylation
- SHP2 activity in vitro (SHP2; concentration not given, listed as D3): does not activate SHP2; also recorded: does not alter SHP2 activity
- Src activation (Src): does not activate Pyk2 or Src; also recorded: does not affect

SMILES: COc1ccc(C2CCCN2C(=O)CC(NC(N)=O)c2ccccc2Cl)cc1OC (stereo not drawn) [Compound 4, 1-(2-chlorophenyl)-3-[2-(3,4-dimethoxyphenyl)pyrrolidin-1-yl]-3-oxopropylurea]
- FAK activation (FAK; 1 nM): no change was observed
- FAK activation (FAK-Tyr-397 phosphorylation) (FAK; 10 nM): can activate FAK
- FAK activation (FAK-Tyr-397 phosphorylation) (FAK; 10 nM, listed as D4): activate FAK
- basal FAK-Tyr-397 phosphorylation (FAK): increase basal FAK-Tyr-397 phosphorylation
- FAK activation (FAK; concentration not given): especially potent
- monolayer wound closure (Caco-2 monolayers; 10 nM): Increased wound closure rates; also recorded: can promote Caco-2 monolayer wound healing
- monolayer wound closure (Caco-2 monolayers; 10 nM, listed as D4): accelerate the closure of circular wounds
- SHP2 dephosphorylation of a synthetic substrate (SHP2): neither D3 nor D4 (100 nM) blocks SHP2 dephosphorylation

SMILES: O=C(Nc1cc(C(F)(F)F)ccc1N1CCOCC1)N1CCCC1c1ccncc1 (stereo not drawn) [Compound M3]
- FAK activation (FAK-Tyr-397 phosphorylation) (FAK; 10 nM): proved active; also recorded: activate FAK Y-397 phosphorylation
- FAK phosphorylation (FAK): activate FAK phosphorylation
- Caco-2 monolayer wound closure (Caco-2 monolayers): promote Caco-2 monolayer wound closure

SMILES: COc1ccc(C(CNC(=O)Nc2cc(C(F)(F)F)ccc2N2CCOCC2)N(C)C)cc1 (stereo not drawn) [Compound M6]
- FAK activation (FAK-Tyr-397 phosphorylation) (FAK; 10 nM): proved active; also recorded: activate FAK Y-397 phosphorylation
- FAK phosphorylation (FAK): activate FAK phosphorylation
- Caco-2 monolayer wound closure (Caco-2 monolayers): promote Caco-2 monolayer wound closure

SMILES: O=C(Nc1cc(C(F)(F)F)ccc1N1CCOCC1)N1CCCC1C1CCCCC1 (stereo not drawn) [Compound M11]
- FAK activation (FAK-Tyr-397 phosphorylation) (FAK; 10 nM): proved active; also recorded: activate FAK Y-397 phosphorylation
- FAK phosphorylation (FAK): activate FAK phosphorylation
- Caco-2 monolayer wound closure (Caco-2 monolayers): promote Caco-2 monolayer wound closure

SMILES: O=C(Nc1cc(C(F)(F)F)ccc1N1CCOCC1)N1CCCC1c1ccccc1 (stereo not drawn) [Compound M12]
- FAK activation (FAK-Tyr-397 phosphorylation) (FAK; 10 nM): proved active; also recorded: activate FAK Y-397 phosphorylation
- monolayer wound closure (Caco-2 monolayers; 10 nM): stimulates monolayer wound closure

SMILES: CS(=O)(=O)c1cccc(CNc2nc(Nc3ccc4c(c3)CCC(=O)N4)ncc2C(F)(F)F)c1 [PF-573228, reference compound]
- basal FAK autophosphorylation (FAK): inhibits basal FAK autophosphorylation
- basal rates of wound healing in vitro (Caco-2 monolayers): reduces basal rates of wound healing in vitro
